# Data published in patent US8969395B2, “Triterpenoid derivatives useful as antiproliferative agents” (Universidade de Coimbra, priority 2009, dated 2015).
# Columns and labels:
# [1] = test system: Jurkat cells; assay: Cell cycle analysis by flow cytometry (FACS, PI), Jurkat; type: cell-based, human; settings: compound at its IC50, 72 h
# Protocol: (§1) The effects on the cell cycle of some of these compounds were assessed through flow cytometry by using a fluorescence-activated cell sorter (FACS) (Table 5 below). For this assay 2.3×10^5 HepG2 cells/well, 2.9×10^4 HeLa cells/well, 1.6×10^5 Jurkat cells/well and 1.4×10^5 Chang liver cells/well were plated in 6 well plates with 2 ml of medium. The number of cells was determined by the relationship number of cells/area wells, considering the number of cells that were cultured in 96-well plates. […] Chang liver cells were incubated with compounds 20, […] at concentrations corresponding to the IC80 determined for HepG2 at 72 h. Following 72 h. of incubation, cells were harvested by mild trypsinization, collected by centrifugation and stained in ice-cold Tris-buffered saline (TBS), containing 1 mg/ml PI, 10 mg/ml RNAse free of DNAase and 0.1% Igepal CA-630 for 1 h at 4° C. FACS analysis was carried out at 488 nm in an Epics XL flow cytometer (Coulter Corporation, Hialeah, Fla.). Data from 8×10^3 cells were collected and analyzed using Multicycle program (Phoenix Flow Systems, San Diego, Calif.). All experiments were performed three times with three replicates per experiment. […] To explore the selectivity of the effect on tumor cells, we also tested compounds 20, 44 and 46 in a non-malignant cell line. Chang liver cells were treated with the compounds at the IC80 values determined for HepG2 after 72 h of incubation and no effect was observed, indicating a selective effect of these agents (Table 5 below).
# [2] = test system: HepG2 cells; assay: Cell cycle analysis by flow cytometry (FACS, PI), HepG2; type: cell-based, human; settings: HepG2, compound at its IC50, 72 h
# Protocol: as §1
# [3] = test system: Jurkat (human leukemia); assay: Cytotoxic activity, XTT assay, Jurkat; type: cell-based; settings: 72 h, mean ±SD
# Protocol: (§2) The cytotoxic of compounds of formulas (I) and (II) 14-50 was assessed towards human cancer (HepG2, HeLa and Jurkat) cell lines (Table 3 below). Compounds presented on Table 4 were also tested against a non-tumoral liver cell line (Chang liver). The cell viability of HeLa, HepG2 and Chang liver cells was determined by the MTT assay. Briefly, exponentially growing cells were plated in 96-well plates at a density of 1×10^3, 8×10^3 and 5×10^3 cells/well respectively and incubated for 24 h before treatment. The grown medium was replaced with one contained the tested compounds dissolved in DMSO (final DMSO concentration <0.1%) at different concentrations, in triplicate wells, and cells were incubated for 72 h. After incubation with the compounds, the medium was removed and MTT solution (0.5 mg/ml, 100 μl) was added to each well and the plates were incubated again for 1 h. DMSO (100 μl) was then added to dissolve the formazan crystals and the plates were immediately read at 550 nm on an ELISA plate reader (Tecan Sunrise MR20-301, TECAN, Austria). For the Jurkat cells, the cell viability was determined by the XTT assay. Briefly, exponentially growing cells were plated in 96-well plates at a density of 5.5×10^3 cells/well, treated with different concentrations of compounds in triplicate and incubated for 72 h. After incubation with the compounds the XTT labeling mixture (100 μl) were added to each of the wells and after a 4 h incubation period the plates were read at 450 nm on an ELISA plate reader. […] Known for its cytotoxic activity, betulinic acid 2 was used as a positive control in this experimentation. […] All the IC50 results represent an average of a minimum of three experiments and were expressed as means±standard deviation (SD).
# [4] = test system: HeLa (human cervical adenocarcinoma); assay: Cytotoxic activity, MTT assay, HeLa; type: cell-based; settings: 72 h, mean ±SD
# Protocol: The cytotoxic of compounds of formulas (I) and (II) 14-50 was assessed towards human cancer (HepG2, HeLa and Jurkat) cell lines (Table 3 below). Compounds presented on Table 4 were also tested against a non-tumoral liver cell line (Chang liver). The cell viability of HeLa, HepG2 and Chang liver cells was determined by the MTT assay. Briefly, exponentially growing cells were plated in 96-well plates at a density of 1×10^3, 8×10^3 and 5×10^3 cells/well respectively and incubated for 24 h before treatment. The grown medium was replaced with one contained the tested compounds dissolved in DMSO (final DMSO concentration <0.1%) at different concentrations, in triplicate wells, and cells were incubated for 72 h. After incubation with the compounds, the medium was removed and MTT solution (0.5 mg/ml, 100 μl) was added to each well and the plates were incubated again for 1 h. DMSO (100 μl) was then added to dissolve the formazan crystals and the plates were immediately read at 550 nm on an ELISA plate reader (Tecan Sunrise MR20-301, TECAN, Austria). For the Jurkat cells, the cell viability was determined by the XTT assay. Briefly, exponentially growing cells were plated in 96-well plates at a density of 5.5×10^3 cells/well, treated with different concentrations of compounds in triplicate and incubated for 72 h. After incubation with the compounds the XTT labeling mixture (100 μl) were added to each of the wells and after a 4 h incubation period the plates were read at 450 nm on an ELISA plate reader. […] Known for its cytotoxic activity, betulinic acid 2 was used as a positive control in this experimentation.
# [5] = test system: Chang liver (human normal liver cells); assay: Cytotoxic activity against non-tumoral cell line, MTT assay; type: cell-based; settings: 72 h, mean ±SD
# Protocol: as §2
# [6] = test system: HepG2 (human hepatocellular carcinoma); assay: Cytotoxic activity, MTT assay, HepG2; type: cell-based; settings: mean ±SD
# Protocol: as §2
# [7] = test system: HeLa cells; assay: Cell cycle analysis by flow cytometry (FACS, PI), HeLa; type: cell-based, human; settings: compound at its IC50, 72 h
# Protocol: as §1
# [8] = test system: LAPC4 (human prostate adenocarcinoma); assay: Cytotoxic activity, LAPC4; type: cell-based; settings: mean ±SD
# Protocol: (§3) Compounds presented in Table 6 were also tested in the following cell lines: PC-3 (human prostate adenocarcinoma), LNCaP (human prostate adenocarcinoma), LAPC4 (human prostate adenocarcinoma) and HT-29 (human colon adenocarcinoma).
# [9] = test system: PC-3 (human prostate adenocarcinoma); assay: Cytotoxic activity, PC-3; type: cell-based; settings: mean ±SD
# Protocol: as §3
# [10] = test system: LNCaP (human prostate adenocarcinoma); assay: Cytotoxic activity, LNCaP; type: cell-based; settings: mean ±SD
# Protocol: as §3
# [11] = test system: HT-29 (human colon adenocarcinoma); assay: Cytotoxic activity, HT-29; type: cell-based; settings: mean ±SD
# Protocol: as §3
SMILES,IC50 [8] [µM],IC50 [3] [µM],IC50 [4] [µM],IC50 [5] [µM],IC50 ([6]; 72 h) [µM],IC50 [9] [µM],IC50 [10] [µM],further results
"C=C(C)[C@@H]1CC[C@]2(C(=O)O)CC[C@]3(C)[C@H](CC[C@@H]4[C@@]5(C)CC[C@H](O)C(C)(C)[C@@H]5CC[C@]43C)[C@@H]12 [Compound 2, Betulinic acid, reference compound]",–,–,–,–,–,–,–,"Phase of cell cycle (% of cells) G0/G1 [1]: 56.8 ± 5.0 % of cells; Phase of cell cycle (% of cells) G2/M [1]: 24.1 ± 4.7 % of cells; Phase of cell cycle (% of cells) S [1]: 18.9 ± 1.2 % of cells; Phase of cell cycle (% of cells) G0/G1 [2]: 59.7 ± 2.0 % of cells; Phase of cell cycle (% of cells) G2/M [2]: 14.3 ± 0.9 % of cells; Phase of cell cycle (% of cells) S [2]: 25.9 ± 1.3 % of cells; IC50 ([3]; Homo sapiens, Jurkat): 26.9 ± 2.2 µM; IC50 ([4]; Homo sapiens, HeLa): 26 ± 2.1 µM; IC50 ([5]; Homo sapiens, Chang liver): 92.3 ± 4.1 µM; IC50 ([6]; Homo sapiens, HepG2, 72 h): 36.4 ± 1.5 µM; Phase of cell cycle (% of cells) G0/G1 [7]: 66.8 ± 1.2 % of cells; Phase of cell cycle (% of cells) G2/M [7]: 11.7 ± 1.1 % of cells; Phase of cell cycle (% of cells) S [7]: 21.4 ± 0.9 % of cells"
"C=C(C)[C@@H]1CC[C@]2(COC(=O)n3ccnc3)CC[C@]3(C)[C@H](CC[C@@H]4[C@@]5(C)CC[C@H](O)C(C)(C)[C@@H]5CC[C@]43C)[C@@H]12 [Compound 14, 3β-hydroxy-lup-20(29)-en-28-yl-1H-imidazole-1-carboxylate]",10.3 ± 1.6,16.3 ± 1.2,7.6 ± 0.6,79.7 ± 6.4,4.2 ± 0.3,21 ± 2,13 ± 1.5,–
"C=C(C)[C@@H]1CC[C@]2(COC(=O)n3ccnc3)CC[C@]3(C)[C@H](CC[C@@H]4[C@@]5(C)CC[C@H](OC(=O)n6ccnc6)C(C)(C)[C@@H]5CC[C@]43C)[C@@H]12 [Compound 17, Lup-20(29)-en-3β,28-di-yl-(1H-imidazole-1-carboxylate)]",12.9 ± 1.1,> 30,> 30,–,> 30,> 30,14.4 ± 1.3,–
"C=C(C)[C@@H]1CC[C@]2(C(=O)O)CC[C@]3(C)[C@H](CC[C@@H]4[C@@]5(C)CC[C@H](OC(=O)n6ccnc6)C(C)(C)[C@@H]5CC[C@]43C)[C@@H]12 [Compound 28, 3β-(1H-imidazole-1-carbonyloxy)-lup-20(29)-en-28-oic acid]",11.8 ± 0.9,5.2 ± 0.7,5.1 ± 0.3,56.8 ± 2.2,6.2 ± 0.2,5.6 ± 0.4,15.6 ± 0.8,–
"C=C(C)[C@@H]1CC[C@]2(C(=O)n3ccnc3)CC[C@]3(C)[C@H](CC[C@@H]4[C@@]5(C)CC[C@H](OC(=O)n6ccnc6)C(C)(C)[C@@H]5CC[C@]43C)[C@@H]12 [Compound 30, 28-(1H-imidazole-1-yl)-28-oxo-lup-20(29)-en-3β-yl-1H-imidazole-1-carboxylate]",4.4 ± 0.2,6 ± 1.2,8.2 ± 0.4,150 ± 13.6,2.9 ± 0.4,1.1 ± 0.1,1.9 ± 0.2,–
"C=C(C)[C@@H]1CC[C@]2(C(=O)n3ccnc3C)CC[C@]3(C)[C@H](CC[C@@H]4[C@@]5(C)CC[C@H](OC(=O)n6ccnc6C)C(C)(C)[C@@H]5CC[C@]43C)[C@@H]12 [Compound 31, 28-(2′-methyl-1H-imidazole-1-yl)-28-oxo-lup-20(29)-en-3β-yl-2′-methyl-1H-imidazole-1-carboxylate]",–,20.1 ± 3.2,–,–,11.6 ± 0.8,–,–,IC50 [11]: 7.8 ± 1.6 µM
"C=C(COC)[C@@H]1CC[C@]2(COC(=O)n3ccnc3)CC[C@]3(C)[C@H](CC[C@@H]4[C@@]5(C)CC[C@H](O)C(C)(C)[C@@H]5CC[C@]43C)[C@@H]12 [Compound 35, 3β-hydroxy-30-methoxylup-20(29)-en-28-yl-1H-imidazole-1-carboxylate]",9.5 ± 0.7,12.2 ± 1.3,9.8 ± 0.6,96.4 ± 7.5,8.3 ± 0.4,11.4 ± 1.3,7.7 ± 0.9,–
"C=C(COC)[C@@H]1CC[C@]2(COC(=O)n3ccnc3)CC[C@]3(C)[C@H](CC[C@@H]4[C@@]5(C)CC[C@H](OC(=O)n6ccnc6)C(C)(C)[C@@H]5CC[C@]43C)[C@@H]12 [Compound 38, 30-methoxylup-20(29)-en-3β,28-di-yl-(1H-imidazole-1-carboxylate)]",7.3 ± 1.1,16.2 ± 1,> 30,170 ± 17.7,19.6 ± 1.6,2 ± 0.3,8.1 ± 1,–
"C[C@@H](C=O)[C@@H]1CC[C@]2(COC(=O)n3ccnc3)CC[C@]3(C)[C@H](CC[C@@H]4[C@@]5(C)CC[C@H](O)C(C)(C)[C@@H]5CC[C@]43C)[C@@H]12 [Compound 41, 3β-hydroxy-(20R)-lupan-29-oxo-28-yl-1H-imidazole-1-carboxylate]",> 30,13.7 ± 1.4,11.1 ± 1.4,146 ± 4.5,11.5 ± 1.1,16.7 ± 2.4,15.6 ± 2.4,–
"C[C@@H](C=O)[C@@H]1CC[C@]2(COC(=O)n3ccnc3)CC[C@]3(C)[C@H](CC[C@@H]4[C@@]5(C)CC[C@H](OC(=O)n6ccnc6)C(C)(C)[C@@H]5CC[C@]43C)[C@@H]12 [Compound 43, (20R)-lupane-29-oxo-3β,28-di-yl-(1H-imidazole-1-carboxylate)]",7.9 ± 1.3,20.2 ± 1.6,19.2 ± 1.5,156 ± 12.5,26.1 ± 1.1,6.2 ± 0.7,6.9 ± 0.3,–
